Data as given in article PMC12589998, “Development and validation of a UHPLC-QqQ-MS/MS method for simultaneous determination of fifteen major components from Oroxyli seed extract in rat plasma and its application in the pharmacokinetic study” (Frontiers in Pharmacology, 2025).
Entries after “also recorded” stand apart in the source; their conditions may differ. Read-outs that look alike come from different tables or passages of the source.

Experiments:
[1] = Pharmacokinetic study in rats after oral administration of OS extract (UHPLC-QqQ-MS/MS of plasma); format: in vivo, rat; conditions: for concentration at 0.5 h / AUC(0-inf) / AUC(0-t) / Cmax / Tmax / half-life: male
Description: The UHPLC-QqQ-MS/MS system consisted of a 1290 UHPLC and a 6470 mass spectrometer (Agilent Technologies). Chromatographic separation was realized on utilizing an ACQUITY UPLC BEH C18 column (2.1 × 100 mm, 1.7 μm) maintained at 35 °C. The mobile phase consisting of 0.1% formic acid in water (A) and acetonitrile (B) was utilized with the elution program set at 0 min–1 min, 5% B–30% B; 1 min–4 min, 30% B– 50% B; 4 min–8 min, and 50% B–90% B. The injection volume was 5 μL, and the flow rate was 0.3 mL/min. The mass spectrometry parameters in the negative ion mode, gas temperature, flow rate, and nebulizer pressure were 300 °C, 7 L/min, and 35 psi, respectively. The mass spectra properties of the 15 analytes and the IS are illustrated in Table 1.
To 100 μL of the plasma sample, 20 μL of methanol, 20 μL of IS solution (methylparaben, 1 μg/mL), and 5 μL of formic acid were added and vortexed for a duration of 2 min. Subsequently, the mixture underwent extraction with 800 μL of acetonitrile for 3 min. Following 10 min of centrifugation at 12,000 g, the supernatant was collected and evaporated to dryness under N2 to obtain the residue. Finally, the residue was reconstituted in 50% methanol (100 μL) and utilized for analysis.
Before initiating the study, six male SD rats underwent a 12-h fasting period, during which they were granted unrestricted access to water. Then, the rats were administered an oral dose of 3 g/kg of the OS extract, which had been dissolved in 0.5% CMC-Na aqueous solution. Blood samples, approximately 200 μL each, were collected at various time points: before administration and at 0.03, 0.08, 0.17, 0.25, 0.5, 0.75, 1, 2, 4, 6, 8, 10, 12, 24, 36, and 48 h post-administration. Following 10 min of centrifugation at 6,000 g, the resultant samples were stored at −80 °C.
The developed method was effectively applied to study the pharmacokinetics in rats following oral administration of the OS extract. […] This was likely due to their low concentrations in the OS extract. Ultimately, nine components (chrysin, chrysin-7-O-β-D-glucuronide, baicalin, baicalein, oroxin A, oroxin B, oroxylin A, oroxylin A-7-O-β-D-glucuronide, and scutellarein) were successfully fitted with pharmacokinetic parameters. The average plasma concentration–time profiles of these substances are depicted in Figure 3. […] All data were presented as the mean ± standard deviation (Mean ± SD).

[2] = Stability of the analytes in rat plasma samples under storage conditions; format: physicochemical; conditions: n = 6
Description: The bioanalytical method validation was evaluated for specificity, linearity, sensitivity, precision and accuracy, recovery, matrix effect, and stability to ensure compliance with the U.S. Food and Drug Administration (FDA) guidance on precise quantitative analysis ([Center for Drug Evaluation and Research of the U.S., 2018]). The assessment of specificity was conducted by comparing the chromatograms obtained from blank plasma, blank plasma spiked with the target components, and samples gathered following the oral administration of OS extract. Calibration curves were constructed by plotting the ratio for the peak area of the analyte to IS versus the concentration, with 1/x^2 serving as the weighting factor. The lower limit of quantification (LLOQ) was defined as the concentration at which a signal to noise ratio of […] 10 was achievable. The evaluation of precision and accuracy involved the analysis of six QC samples, both within a single day and over 3 consecutive days. Accuracy was expressed as the relative error (RE), whereas precision was gauged via relative standard deviation (RSD). Extraction recovery was ascertained by juxtaposing the responses of analytes in extracted samples against those in samples that were spiked post-extraction. The matrix effect was scrutinized by determining the ratio of the responses of the analytes in post-extraction spiked samples to those in the mixed standard solution. The stability of the analytes in plasma samples was explored under diverse conditions: encompassing a 12-h period in an autosampler, a 4-h interval at room temperature, three cycles of freezing–thawing, and a 7-day duration at −80 °C.
The retention times of the analyte peaks were consistent with those in the spiked samples. […] The LLOQs for chrysin, chrysin-7-O-β-D-glucuronide, hispidulin, wogonoside, quercetin, quercetin-7-O-β-D-glucoside, baicalin, baicalein, acacetin, oroxin A, oroxin B, oroxylin A, oroxylin A-7-O-β-D-glucuronide, apigenin, and scutellarein were 1.0, 2.0, 1.0, 0.3, 1.0, 0.1, 9.0, 6.0, 0.3, 6.0, 4.0, 1.0, 2.0, 0.5, and 0.3 ng/mL, respectively. In Supplementary Table S2, the RE for accuracy is between −13.77% and 12.55%, and the RSD for precision is below 14.55% (both intra- and inter-day). […] The matrix effect varied from 60.15% to 115.53%, with RSD values below 10.54%. In Supplementary Table S4, the RSD values for stability of the analytes are found to be lower than 13.98%, meaning that these components were stable under the following conditions: encompassing a 12-h period in an autosampler, a 4-h interval at room temperature, three cycles of freezing and thawing, and a 7-day duration at −80 °C.

[3] = spiked concentration 1600 ng/mL
[4] = SD, 3 g/kg, rat plasma collected 0.5 h after oral administration of the OS extract, read-out: Concentration printed in MRM chromatogram of plasma sample (Figure 2C)
[5] = rat plasma, oral 3 g/kg OS extract, n = 6, mean ± SD, read-out: Tmax
[6] = rat plasma after oral OS extract

Measured, -80°C for 7 days ([2]; spiked concentration 10 ng/mL)	Measured, Autosampler for 12 h ([2]; spiked concentration 10 ng/mL)	Measured, Room temperature for 4 h ([2]; spiked concentration 10 ng/mL)	Measured, Three freeze-thaw cycles ([2]; spiked concentration 10 ng/mL)	Measured, -80°C for 7 days ([2]; spiked concentration 100 ng/mL)	Measured, Autosampler for 12 h ([2]; spiked concentration 100 ng/mL)	Measured, Room temperature for 4 h ([2]; spiked concentration 100 ng/mL)	Measured, Three freeze-thaw cycles ([2]; spiked concentration 100 ng/mL)	Measured, -80°C for 7 days [2, 3]	Measured, Autosampler for 12 h [2, 3]	Measured, Room temperature for 4 h [2, 3]	Measured, Three freeze-thaw cycles [2, 3]	concentration at 0.5 h [1, 4]	Tmax [1, 5]	SMILES	also measured
10.45 ± 0.29 ng/mL	10.51 ± 1.15 ng/mL	10.16 ± 0.90 ng/mL	10.69 ± 0.70 ng/mL	92.00 ± 7.39 ng/mL	90.43 ± 9.04 ng/mL	92.23 ± 5.62 ng/mL	88.86 ± 4.67 ng/mL	1720.89 ± 130.14 ng/mL	1797.17 ± 87.55 ng/mL	1790.22 ± 78.72 ng/mL	1733.57 ± 149.41 ng/mL	–	–	COc1c(O)cc2oc(-c3ccccc3)cc(=O)c2c1O [Oroxylin A, oroxylin A]	concentration at 0.5 h ([1]; SD, rat, in vivo, po): 165 ng/mL; AUC(0-inf) ([1]; SD, rat, in vivo, po, 3 g/kg): 3010 ng·h/mL; AUC(0-t) ([1]; SD, rat, in vivo, po, 3 g/kg): 2840 ng·h/mL; Cmax ([1]; SD, rat, in vivo, po, 3 g/kg): 512 ± 179 ng/mL; Tmax ([1]; SD, rat, in vivo, po, 3 g/kg): 0.25 ± 0.00 h; half-life ([1]; SD, rat, in vivo, po, 3 g/kg): 7.7 ± 0.97 h
9.25 ± 0.47 ng/mL	9.44 ± 1.32 ng/mL	11.03 ± 0.43 ng/mL	9.21 ± 0.83 ng/mL	95.03 ± 7.93 ng/mL	98.52 ± 5.58 ng/mL	108.86 ± 4.87 ng/mL	90.02 ± 5.94 ng/mL	1626.95 ± 164.45 ng/mL	1793.11 ± 46.98 ng/mL	1799.31 ± 27.98 ng/mL	1550.12 ± 77.94 ng/mL	61 ng/mL	9.6 ± 1.67 h	COc1c(O[C@@H]2O[C@H](C(=O)O)[C@@H](O)[C@H](O)[C@H]2O)cc2oc(-c3ccccc3)cc(=O)c2c1O [Oroxylin A-7-O-β-D-glucuronide, oroxylin A-7-O-β-D-glucuronide]	AUC(0-t) ([1]; rat plasma, oral 3 g/kg OS extract, n = 6, mean ± SD, read-out: AUC(0-t)): 11400 ng·h/mL; AUC(0-inf) ([1]; rat plasma, oral 3 g/kg OS extract, n = 6, mean ± SD, read-out: AUC(0-∞)): 11600 ng·h/mL; Cmax ([1]; rat plasma, oral 3 g/kg OS extract, n = 6, mean ± SD, read-out: Cmax): 912 ± 350 ng/mL; half-life ([1]; rat plasma, oral 3 g/kg OS extract, n = 6, mean ± SD, read-out: T1/2 (converted)): 7.22 ± 1.04 h; Shape of plasma concentration-time curve [1, 6]: significant bimodal phenomena; also recorded: clear bimodal phenomena
–	–	–	–	–	–	–	–	–	–	–	–	26 ng/mL	~10 h	O=c1c(O)c(-c2ccc(O)c(O)c2)oc2cc(O)cc(O)c12 [Quercetin, quercetin]	Plasma levels [1, 6]: too weak to obtain comprehensive pharmacokinetic curves; Measured, -80°C for 7 days ([2]; spiked concentration 2 ng/mL): 1.81 ± 0.12 ng/mL; Measured, Autosampler for 12 h ([2]; spiked concentration 2 ng/mL): 1.90 ± 0.21 ng/mL; Measured, Room temperature for 4 h ([2]; spiked concentration 2 ng/mL): 1.80 ± 0.22 ng/mL; Measured, Three freeze-thaw cycles ([2]; spiked concentration 2 ng/mL): 1.80 ± 0.09 ng/mL; Measured, -80°C for 7 days ([2]; spiked concentration 20 ng/mL): 17.37 ± 0.79 ng/mL; Measured, Autosampler for 12 h ([2]; spiked concentration 20 ng/mL): 17.83 ± 1.42 ng/mL; Measured, Room temperature for 4 h ([2]; spiked concentration 20 ng/mL): 19.06 ± 1.54 ng/mL; Measured, Three freeze-thaw cycles ([2]; spiked concentration 20 ng/mL): 20.46 ± 0.77 ng/mL; Measured, -80°C for 7 days ([2]; spiked concentration 320 ng/mL): 285.05 ± 20.53 ng/mL; Measured, Autosampler for 12 h ([2]; spiked concentration 320 ng/mL): 325.17 ± 28.70 ng/mL; Measured, Room temperature for 4 h ([2]; spiked concentration 320 ng/mL): 298.43 ± 22.04 ng/mL; Measured, Three freeze-thaw cycles ([2]; spiked concentration 320 ng/mL): 288.07 ± 26.80 ng/mL
